According to US7713969B2, “Compositions and methods for treatment of cancer” (ArQule, Inc., priority 2005, dated 2010):

Tests used:
[1] = tested on: A549; assay: Cell viability MTS assay; format: cell-based, human; conditions: Homo sapiens, A549, 72 hours with compound
Outline: (§1)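 72 h compound exposure, 0.33% DMSO final; MTS 2 gm/L + PMS 7.67 mg/L final, 4 h; SDS 1.4% final; A490. IC50 vs DMSO-only wells, non-linear regression.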

[2] = tested on: DU-145; assay: Cell viability MTS assay; format: cell-based, human; conditions: Homo sapiens, DU-145, 72 hours with compound
Outline: as §1

[3] = tested on: HCT-116; assay: Cell viability MTS assay; format: cell-based, human; conditions: Homo sapiens, HCT-116, 72 hours with compound
Outline: as §1

[4] = tested on: HT29; assay: Cell viability MTS assay; format: cell-based, human; conditions: Homo sapiens, HT-29, 72 hours with compound
Outline: as §1

[5] = tested on: K562; assay: Cell viability MTS assay; format: cell-based, human; conditions: Homo sapiens, K562, 72 hours with compound
Outline: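 Cells are seeded and incubated 16-24 hours, then given compound for 72 hours at 0.33% final DMSO. MTS and PMS are added for 4 hours, followed by SDS to 1.4%, and absorbance is read at 490 nm. IC50 marks a 50% drop in viable cells relative to DMSO-only wells.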

[6] = tested on: MCF7; assay: Cell viability MTS assay; format: cell-based, human; conditions: Homo sapiens, MCF7, 72 hours with compound
Outline: as §1

[7] = tested on: MDA-MB-231; assay: Cell viability MTS assay; format: cell-based, human; conditions: Homo sapiens, MDA-MB-231, 72 hours with compound
Outline: as §1

[8] = tested on: PC-3; assay: Cell viability MTS assay; format: cell-based, human; conditions: Homo sapiens, PC-3, 72 hours with compound
Outline: as §1

[9] = tested on: SK-MEL-28; assay: Cell viability MTS assay; format: cell-based, human; conditions: Homo sapiens, SK-MEL-28, 72 hours with compound
Outline: as §1

[10] = tested on: SKOV-3; assay: Cell viability MTS assay; format: cell-based, human; conditions: Homo sapiens, SK-OV-3, 72 hours with compound
Outline: as §1

[11] = tested on: DLD-1; assay: Colony formation assay (CFA); format: cell-based; conditions: Homo sapiens; DLD-1, 24 hours exposure, colonies after 14-21 days; read-out: (−)-trans IC50 CFA
Method: (§2) To determine c-met inhibition, exponentially growing MCF-7 and MDA-MB-231 human breast cancer cells, DLD1 and HT29 human colon cancer cells, PACA2 and PANC-1 human pancreatic cancer cells and NCI-H441 human non-small cell lung cancer cells (H441) were serum starved in 0.5% FBS and treated with increasing amounts of (−)-trans-3-(5,6-dihydro-4H-pyrrolo [3,2,1-ij]quinolin-1-yl)-4(1H-indol-3-yl)pyrrolidine-2,5-dione for 24 hours as indicated. Cells were then left unstimulated or stimulated with 100 ng/mL HGF for 10 minutes and whole cell extracts were prepared. Whole cell lysates (50 μg) were resolved by SDS-PAGE, transferred onto a PVDF membrane, and an enhanced chemiluminescence assay system (ECL) was used to determine the phosphorylation status of c-Met. A polyclonal antibody against phospho (Y1349) c-Met (phospho-c-Met) was obtained from Biosource International and a monoclonal antibody against β-actin was purchased from Invitrogen. Percent inhibition was determined by densitometry using the Scion Image For colony formation assays (CFA), exponentially growing cells were seeded at 2,000 cells per well in 6-well plates and allowed to attach for 24 hours. Increasing concentrations of (−)-trans-3-(5,6-dihydro-4H-pyrrolo[3,2,1-ij]quinolin-1-yl)-4(1H-indol-3-yl)pyrrolidine-2,5-dione (from 0.01 to 30 μM) were then added to the media for another 24 hours. After 24 hours exposure, the drug was removed and fresh media was added for the next 14-21 days, allowing for colony formation. Cells were fixed and stained with GEMSA (Gibco BRL). Colonies of greater than 50 cells were scored as survivors and percentage of cell survival was plotted to determine the IC50. […] The IC50 of (−)-trans-3-(5,6-dihydro-4H-pyrrolo[3,2,1-ij]quinolin-1-yl)-4(1H-indol-3-yl) pyrrolidine-2,5-dione for c-Met expressing solid tumor types is in the 0.1-0.7 μM range following exposure to (−)-trans-3-(5,6-dihydro-4H-pyrrolo[3,2,1-ij]quinolin-1-yl)-4(1H-indol-3-yl)pyrrolidine-2,5-dione for 24 hours, as determined by colony formation assay (CFA).

[12] = tested on: H441; assay: Colony formation assay (CFA); format: cell-based; conditions: Homo sapiens, NCI-H441; H441, 24 hours exposure, colonies after 14-21 days; read-out: (−)-trans IC50 CFA
Method: as §2

[13] = tested on: H446; assay: Colony formation assay (CFA); format: cell-based; conditions: Homo sapiens, NCI-H446; H446, 24 hours exposure, colonies after 14-21 days; read-out: (−)-trans IC50 CFA
Method: as §2

[14] = tested on: H661; assay: Colony formation assay (CFA); format: cell-based; conditions: Homo sapiens, NCI-H661; H661, 24 hours exposure, colonies after 14-21 days; read-out: (−)-trans IC50 CFA
Method: as §2

[15] = tested on: MDA-MB-231; assay: Colony formation assay (CFA); format: cell-based; conditions: Homo sapiens; MDA-MB-231, 24 hours exposure, colonies after 14-21 days; read-out: (−)-trans IC50 CFA
Method: as §2

[16] = tested on: PACA2; assay: Colony formation assay (CFA); format: cell-based; conditions: Homo sapiens, PaCa-2; PACA2, 24 hours exposure, colonies after 14-21 days; read-out: (−)-trans IC50 CFA
Method: as §2

[17] = tested on: PANC-1; assay: Colony formation assay (CFA); format: cell-based; conditions: Homo sapiens; PANC-1, 24 hours exposure, colonies after 14-21 days; read-out: (−)-trans IC50 CFA
Method: as §2

[18] = tested on: human tumor cell lines; assay: Colony formation assay, summary across cell lines; format: cell-based; conditions: c-Met expressing solid tumor types, 24 hours exposure, read-out: IC50 for c-Met expressing solid tumor types (CFA)
Method: To determine c-met inhibition, exponentially growing MCF-7 and MDA-MB-231 human breast cancer cells, DLD1 and HT29 human colon cancer cells, PACA2 and PANC-1 human pancreatic cancer cells and NCI-H441 human non-small cell lung cancer cells (H441) were serum starved in 0.5% FBS and treated with increasing amounts of (−)-trans-3-(5,6-dihydro-4H-pyrrolo [3,2,1-ij]quinolin-1-yl)-4(1H-indol-3-yl)pyrrolidine-2,5-dione for 24 hours as indicated. Cells were then left unstimulated or stimulated with 100 ng/mL HGF for 10 minutes and whole cell extracts were prepared. […] Percent inhibition was determined by densitometry using the Scion Image For colony formation assays (CFA), exponentially growing cells were seeded at 2,000 cells per well in 6-well plates and allowed to attach for 24 hours. […] Colonies of greater than 50 cells were scored as survivors and percentage of cell survival was plotted to determine the IC50. […] The IC50 of (−)-trans-3-(5,6-dihydro-4H-pyrrolo[3,2,1-ij]quinolin-1-yl)-4(1H-indol-3-yl) pyrrolidine-2,5-dione for c-Met expressing solid tumor types is in the 0.1-0.7 μM range following exposure to (−)-trans-3-(5,6-dihydro-4H-pyrrolo[3,2,1-ij]quinolin-1-yl)-4(1H-indol-3-yl)pyrrolidine-2,5-dione for 24 hours, as determined by colony formation assay (CFA).

Row | IC50 [1] [nM] | IC50 [2] [nM] | IC50 [3] [nM] | IC50 [4] [nM] | IC50 [5] [nM] | IC50 [6] [nM] | IC50 [7] [nM] | IC50 [8] [nM] | IC50 [9] [nM] | IC50 [10] [nM] | IC50 [11] [nM] | IC50 [12] [nM] | IC50 [13] [nM] | IC50 [14] [nM] | IC50 [15] [nM] | IC50 [16] [nM] | IC50 [17] [nM] | IC50 [18] [nM] | Compound
1 | 10700 | 9610 | 1820 | 4550 | 424 | > 100000 | 3340 | 4950 | 13000 | 939 | – | – | – | – | – | – | – | – | O=C1NC(=O)[C@@H](c2cn3c4c(cccc24)CCC3)[C@@H]1c1c[nH]c2ccccc12 (racemic) [(±)-Trans-3-(5,6-dihydro-4H-pyrrolo[3,2,1-ij]quinolin-1-yl)-4(1H-indol-3-yl)pyrrolidine-2,5-dione]
2 | 5800 | 4000 | 812 | 1950 | 294 | > 100000 | 2190 | 1280 | 8680 | 444 | 700 | 200 | 4000 | 5000 | 300 | 300 | 500 | 100 to 700 | O=C1NC(=O)C(c2cn3c4c(cccc24)CCC3)C1c1c[nH]c2ccccc12 (single isomer, unassigned; (-))
